Assay results taken from paper PMC10276154, “Development of the nonreceptor tyrosine kinase FER-targeting PROTACs as a potential strategy for antagonizing ovarian cancer cell motility and invasiveness” (The Journal of Biological Chemistry, 2023).

Target: FER (Homo sapiens, UniProt P16591)
Test: pY402-FER autophosphorylation immunoblot in HEK293FT cells transfected with pLV-FER, […] h
Format: cell-based

FER, sequence (P16591 whole entry): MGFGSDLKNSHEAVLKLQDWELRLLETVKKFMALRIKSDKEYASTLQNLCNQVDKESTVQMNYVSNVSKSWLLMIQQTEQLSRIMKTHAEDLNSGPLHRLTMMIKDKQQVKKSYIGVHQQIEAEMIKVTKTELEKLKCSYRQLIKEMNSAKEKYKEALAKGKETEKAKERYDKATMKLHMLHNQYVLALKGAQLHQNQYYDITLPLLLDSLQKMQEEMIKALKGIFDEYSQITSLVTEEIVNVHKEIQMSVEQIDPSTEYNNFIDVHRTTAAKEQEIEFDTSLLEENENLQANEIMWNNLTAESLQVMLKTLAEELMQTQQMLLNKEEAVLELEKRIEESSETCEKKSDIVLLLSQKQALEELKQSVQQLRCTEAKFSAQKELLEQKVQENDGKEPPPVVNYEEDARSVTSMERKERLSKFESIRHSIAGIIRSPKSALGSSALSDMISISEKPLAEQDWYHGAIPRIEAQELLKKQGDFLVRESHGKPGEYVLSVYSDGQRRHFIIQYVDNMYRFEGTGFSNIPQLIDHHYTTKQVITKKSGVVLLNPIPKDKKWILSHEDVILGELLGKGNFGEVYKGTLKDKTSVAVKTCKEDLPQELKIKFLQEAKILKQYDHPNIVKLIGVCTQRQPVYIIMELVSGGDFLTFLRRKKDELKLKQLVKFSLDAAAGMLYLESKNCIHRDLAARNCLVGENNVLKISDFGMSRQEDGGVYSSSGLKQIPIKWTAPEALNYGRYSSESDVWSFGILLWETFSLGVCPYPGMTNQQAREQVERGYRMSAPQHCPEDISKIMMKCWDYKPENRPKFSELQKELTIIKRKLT

IC50: 138 nM
SMILES: COc1cc(N2CCC(N3CCN(C)CC3)CC2)ccc1Nc1ncc(Cl)c(Nc2ccccc2P(C)(C)=O)n1 [brigatinib]
